Target: recombinant human LRRK2 (catalytic domain only [amino acids 970-2527], GST-tagged) (Homo sapiens (Human), UniProt Q5S007)
Test: LRRK2 Enzymatic Assay
Format: biochemical
Details: LRRKtide substrate, [32P]-ATP
Outline: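 Radiometric P81 filter-binding read-out of [32P]-ATP transfer to LRRKtide (20 μM) by 30 nM GST-LRRK2 970-2527, 2 h at room temperature after 20 min compound preincubation (10 μM–0.5 nM, 1% DMSO). IC50 derived from % remaining activity versus DMSO.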

Sequence of recombinant human LRRK2 (catalytic domain only [amino acids 970-2527], GST-tagged) (Q5S007 970-2527): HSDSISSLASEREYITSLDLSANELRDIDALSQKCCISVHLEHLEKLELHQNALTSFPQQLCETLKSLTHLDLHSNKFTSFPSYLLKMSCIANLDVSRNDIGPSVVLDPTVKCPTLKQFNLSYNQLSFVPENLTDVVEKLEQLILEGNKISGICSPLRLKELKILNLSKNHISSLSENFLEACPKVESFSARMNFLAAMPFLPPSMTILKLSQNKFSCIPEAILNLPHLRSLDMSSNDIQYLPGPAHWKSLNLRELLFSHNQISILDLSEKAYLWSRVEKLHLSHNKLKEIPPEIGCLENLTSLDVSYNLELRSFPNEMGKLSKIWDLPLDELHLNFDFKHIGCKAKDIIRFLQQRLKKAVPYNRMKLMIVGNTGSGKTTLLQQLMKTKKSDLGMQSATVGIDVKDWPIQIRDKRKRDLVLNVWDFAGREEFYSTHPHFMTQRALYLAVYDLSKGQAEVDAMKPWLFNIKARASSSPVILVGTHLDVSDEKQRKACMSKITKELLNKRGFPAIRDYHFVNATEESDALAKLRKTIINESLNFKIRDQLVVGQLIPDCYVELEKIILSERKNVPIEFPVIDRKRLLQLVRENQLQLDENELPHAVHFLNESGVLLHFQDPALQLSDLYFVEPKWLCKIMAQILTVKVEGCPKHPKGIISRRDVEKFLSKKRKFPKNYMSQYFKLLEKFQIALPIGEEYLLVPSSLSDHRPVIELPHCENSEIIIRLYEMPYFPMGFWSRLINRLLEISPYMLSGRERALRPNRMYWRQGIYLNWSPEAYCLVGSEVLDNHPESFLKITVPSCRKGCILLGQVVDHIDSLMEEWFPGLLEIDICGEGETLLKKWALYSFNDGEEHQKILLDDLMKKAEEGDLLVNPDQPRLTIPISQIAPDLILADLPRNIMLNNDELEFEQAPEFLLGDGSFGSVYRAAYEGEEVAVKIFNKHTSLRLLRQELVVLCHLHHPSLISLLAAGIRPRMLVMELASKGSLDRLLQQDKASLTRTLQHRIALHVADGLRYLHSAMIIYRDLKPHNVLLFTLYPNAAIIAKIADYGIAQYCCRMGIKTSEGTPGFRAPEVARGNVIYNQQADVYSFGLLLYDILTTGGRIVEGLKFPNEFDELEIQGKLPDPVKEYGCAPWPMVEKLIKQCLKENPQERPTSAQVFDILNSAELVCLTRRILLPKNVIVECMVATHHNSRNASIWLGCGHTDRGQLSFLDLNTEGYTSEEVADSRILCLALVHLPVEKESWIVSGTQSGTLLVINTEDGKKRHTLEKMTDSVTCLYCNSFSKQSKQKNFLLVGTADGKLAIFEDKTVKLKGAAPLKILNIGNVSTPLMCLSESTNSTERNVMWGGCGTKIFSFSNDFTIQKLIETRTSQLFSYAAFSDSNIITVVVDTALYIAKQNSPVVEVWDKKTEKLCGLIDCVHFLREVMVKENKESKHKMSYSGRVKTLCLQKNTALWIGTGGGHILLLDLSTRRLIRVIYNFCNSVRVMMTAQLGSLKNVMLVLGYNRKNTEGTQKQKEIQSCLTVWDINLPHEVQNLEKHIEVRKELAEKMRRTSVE

Row | SMILES | IC50 [nM]
1 | CC(C)n1cc(Nc2ncc(F)c(OC[C@H]3CC[C@H](O)CC3)n2)cn1 [Example 218, (1R,4R)-4-(((5-fluoro-2-((1-isopropyl-1H-pyrazol-4-yl)amino)pyrimidin-4-yl)oxy)methyl)cyclohexan-1-ol] | 50 to 200
2 | CC(C)n1cc(Nc2ncc(F)c(OC[C@H]3CC[C@@H](O)CC3)n2)cn1 [Example 219, (1S,4S)-4-(((5-fluoro-2-((1-isopropyl-1H-pyrazol-4-yl)amino)pyrimidin-4-yl)oxy)methyl)cyclohexan-1-ol] | > 400
3 | O[C@H]1CC[C@H](COc2nc(Nc3cnn(C4CC4)c3)ncc2F)CC1 [Example 220, (1R,4R)-4-(((2-((1-cyclopropyl-1H-pyrazol-4-yl)amino)-5-fluoropyrimidin-4-yl)oxy)methyl)cyclohexan-1-ol] | 50 to 200
4 | CC(C)(C#N)n1cc(Nc2ncc(F)c(OC[C@H]3CC[C@H](O)CC3)n2)cn1 [Example 221] | 50 to 200
5 | O[C@H]1CC[C@H](COc2nc(Nc3cnn(C(F)(F)F)c3)ncc2F)CC1 [Example 222, (1R,4R)-4-(((5-fluoro-2-((1-(trifluoromethyl)-1H-pyrazol-4-yl)amino)pyrimidin-4-yl)oxy)methyl)cyclohexan-1-ol] | > 400
6 | O[C@H]1CC[C@H](COc2nc(Nc3cnn(CC(F)(F)F)c3)ncc2F)CC1 [Example 223, (1R,4R)-4-(((5-fluoro-2-((1-(2,2,2-trifluoroethyl)-1H-pyrazol-4-yl)amino)pyrimidin-4-yl)oxy)methyl)cyclohexan-1-ol] | 50 to 200
7 | O[C@H]1CC[C@H](COc2nc(Nc3cnn(CCF)c3)ncc2F)CC1 [Example 224, (1R,4R)-4-(((5-fluoro-2-((1-(2-fluoroethyl)-1H-pyrazol-4-yl)amino)pyrimidin-4-yl)oxy)methyl)cyclohexan-1-ol] | < 50
8 | OCCn1cc(Nc2ncc(F)c(OC[C@H]3CC[C@H](O)CC3)n2)cn1 [Example 225, (1R,4R)-4-(((5-fluoro-2-((1-(2-hydroxyethyl)-1H-pyrazol-4-yl)amino)pyrimidin-4-yl)oxy)methyl)cyclohexan-1-ol] | < 50
9 | COCCn1cc(Nc2ncc(F)c(OC[C@H]3CC[C@H](O)CC3)n2)cn1 [Example 226, (1R,4R)-4-(((5-fluoro-2-((1-(2-methoxyethyl)-1H-pyrazol-4-yl)amino)pyrimidin-4-yl)oxy)methyl)cyclohexan-1-ol] | 50 to 200
10 | O[C@H]1CC[C@H](COc2nc(Nc3cnn(C4COC4)c3)ncc2F)CC1 [Example 227, (1R,4R)-4-(((5-fluoro-2-((1-(oxetan-3-yl)-1H-pyrazol-4-yl)amino)pyrimidin-4-yl)oxy)methyl)cyclohexan-1-ol] | 200 to 400
11 | O[C@H]1CC[C@H](COc2nc(Nc3cnn(C4CCOCC4)c3)ncc2F)CC1 [Example 228, (1R,4R)-4-(((5-fluoro-2-((1-(tetrahydro-2H-pyran-4-yl)-1H-pyrazol-4-yl)amino)pyrimidin-4-yl)oxy)methyl)cyclohexan-1-ol] | 200 to 400
12 | Cc1nn(C)cc1Nc1ncc(F)c(OC[C@H]2CC[C@H](O)CC2)n1 [Example 229, (1R,4R)-4-(((2-((1,3-dimethyl-1H-pyrazol-4-yl)amino)-5-fluoropyrimidin-4-yl)oxy)methyl)cyclohexan-1-ol] | 50 to 200
13 | Cc1nn(C(C)C)cc1Nc1ncc(F)c(OC[C@H]2CC[C@H](O)CC2)n1 [Example 230, (1R,4R)-4-(((5-fluoro-2-((1-isopropyl-3-methyl-1H-pyrazol-4-yl)amino)pyrimidin-4-yl)oxy)methyl)cyclohexan-1-ol] | 50 to 200
14 | Cc1nn(C2CC2)cc1Nc1ncc(F)c(OC[C@H]2CC[C@H](O)CC2)n1 [Example 231, (1R,4R)-4-(((2-((1-cyclopropyl-3-methyl-1H-pyrazol-4-yl)amino)-5-fluoropyrimidin-4-yl)oxy)methyl)cyclohexan-1-ol] | 50 to 200
15 | Cc1nn(C(F)F)cc1Nc1ncc(F)c(OC[C@H]2CC[C@H](O)CC2)n1 [Example 232, (1R,4R)-4-(((2-((1-(difluoromethyl)-3-methyl-1H-pyrazol-4-yl)amino)-5-fluoropyrimidin-4-yl)oxy)methyl)cyclohexan-1-ol] | 50 to 200
16 | CCc1nn(C)cc1Nc1ncc(F)c(OC[C@H]2CC[C@H](O)CC2)n1 [Example 233, (1R,4R)-4-(((2-((3-ethyl-1-methyl-1H-pyrazol-4-yl)amino)-5-fluoropyrimidin-4-yl)oxy)methyl)cyclohexan-1-ol] | < 50
17 | Cc1c(Nc2ncc(F)c(OC[C@H]3CC[C@H](O)CC3)n2)cnn1C(C)(C)C#N [Example 234, 2-(4-((5-fluoro-4-(((1R,4R)-4-hydroxycyclohexyl)methoxy)pyrimidin-2-yl)amino)-5-methyl-1H-pyrazol-1-yl)-2-methylpropanenitrile] | < 50
18 | Cc1c(Nc2ncc(F)c(OC[C@H]3CC[C@H](O)CC3)n2)cnn1C(F)F [Example 235, (1R,4R)-4-(((2-((1-(difluoromethyl)-5-methyl-1H-pyrazol-4-yl)amino)-5-fluoropyrimidin-4-yl)oxy)methyl)cyclohexan-1-ol] | 50 to 200
19 | O[C@H]1CC[C@H](COc2nc(Nc3cnn(C4CCOCC4)c3C3CC3)ncc2F)CC1 [Example 236, (1R,4R)-4-(((2-((5-cyclopropyl-1-(tetrahydro-2H-pyran-4-yl)-1H-pyrazol-4-yl)amino)-5-fluoropyrimidin-4-yl)oxy)methyl)cyclohexan-1-ol] | < 50
20 | Cn1cc(Nc2ncc(F)c(OC[C@H]3CC[C@H](O)CC3)n2)c(Cl)n1 [Example 237, (1R,4R)-4-(((2-((3-chloro-1-methyl-1H-pyrazol-4-yl)amino)-5-fluoropyrimidin-4-yl)oxy)methyl)cyclohexan-1-ol] | 50 to 200
21 | CC(C)n1cc(Nc2ncc(F)c(OC[C@H]3CC[C@H](O)CC3)n2)c(Cl)n1 [Example 238, (1R,4R)-4-(((2-((3-chloro-1-isopropyl-1H-pyrazol-4-yl)amino)-5-fluoropyrimidin-4-yl)oxy)methyl)cyclohexan-1-ol] | 200 to 400
22 | O[C@H]1CC[C@H](COc2nc(Nc3cn(C4CC4)nc3Cl)ncc2F)CC1 [Example 239, (1R,4R)-4-(((2-((3-chloro-1-cyclopropyl-1H-pyrazol-4-yl)amino)-5-fluoropyrimidin-4-yl)oxy)methyl)cyclohexan-1-ol] | 200 to 400
23 | OCCn1ncc(Nc2ncc(F)c(OC[C@H]3CC[C@H](O)CC3)n2)c1Cl [Example 240, (1R,4R)-4-(((2-((5-chloro-1-(2-hydroxyethyl)-1H-pyrazol-4-yl)amino)-5-fluoropyrimidin-4-yl)oxy)methyl)cyclohexan-1-ol] | 50 to 200
24 | COCCn1ncc(Nc2ncc(F)c(OC[C@H]3CC[C@H](O)CC3)n2)c1Cl [Example 241, (1R,4R)-4-(((2-((5-chloro-1-(2-methoxyethyl)-1H-pyrazol-4-yl)amino)-5-fluoropyrimidin-4-yl)oxy)methyl)cyclohexan-1-ol] | 50 to 200
25 | O[C@H]1CC[C@H](COc2nc(Nc3cnn(C4CCOCC4)c3Cl)ncc2F)CC1 [Example 242, (1R,4R)-4-(((2-((5-chloro-1-(tetrahydro-2H-pyran-4-yl)-1H-pyrazol-4-yl)amino)-5-fluoropyrimidin-4-yl)oxy)methyl)cyclohexan-1-ol] | < 50
26 | COc1nn(C)cc1Nc1ncc(F)c(OC[C@H]2CC[C@H](O)CC2)n1 [Example 243, (1R,4R)-4-(((5-fluoro-2-((3-methoxy-1-methyl-1H-pyrazol-4-yl)amino)pyrimidin-4-yl)oxy)methyl)cyclohexan-1-ol] | 200 to 400

From patent US11578061B2, “Inhibitors of LRRK2 kinase” (Halia Therapeutics, Inc., priority 2021, dated 2023)
